Test results as given in patent US7202040B2, “Method for screening compounds which change the binding properties of a protein with a ligand” (Takeda Pharmaceutical Company Limited, priority 2001, dated 2007).

Tests used:
[1] = biological target: T1, GPR34-expressed CHO cells (Homo sapiens, UniProt Q9UPC5); assay: Intracellular cAMP production inhibitory activity using GPR34-expressed CHO cells (forskolin-stimulated, cAMP EIA); assay type: cell-based; conditions: 2 μM forskolin, FIG. 1
T1 construct: expressed in transfected cells
T1 sequence (Q9UPC5 whole entry): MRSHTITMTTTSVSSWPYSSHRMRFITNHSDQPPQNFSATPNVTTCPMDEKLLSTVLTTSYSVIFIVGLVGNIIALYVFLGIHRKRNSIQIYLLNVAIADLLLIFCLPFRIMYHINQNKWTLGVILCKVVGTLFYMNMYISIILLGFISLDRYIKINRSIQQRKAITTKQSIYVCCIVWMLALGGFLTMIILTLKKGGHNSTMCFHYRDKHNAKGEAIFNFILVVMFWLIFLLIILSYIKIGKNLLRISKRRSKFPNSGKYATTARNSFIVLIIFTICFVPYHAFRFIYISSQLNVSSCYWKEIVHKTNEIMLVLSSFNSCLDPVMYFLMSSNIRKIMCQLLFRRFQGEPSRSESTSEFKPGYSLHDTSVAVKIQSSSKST
Protocol: The GPR34-expressed CHO cells prepared in (1-2) described above and selected in (1-2) described above were plated on a 24-well plate in 6×10^4 cells/well followed by incubation for 48 hours. The cells were washed with αMEM medium (pH 7.5) containing 0.2 mM 3-isobutyl-methylxanthine, 0.05% BSA and 20 mM HEPES (hereinafter αMEM medium (pH 7.5) containing 0.2 mM 3-isobutyl-methylxanthine, 0.05% BSA and 20 mM HEPES is referred to as the reaction buffer). Thereafter, 0.5 mL of the reaction buffer was added and the mixture was kept warm for 30 minutes in an incubator. The reaction buffer was removed and 0.25 mL of fresh reaction buffer was replenished to the cells. Then, 0.25 mL of the reaction buffer containing a sample and 2 μM forskolin was added to the cells, followed by reacting at 37° C. for 30 minutes. […] The cAMP level in the extract was quantified using the same kit. Based on this measurement data, the cAMP production inhibitory activity was calculated based on the equation shown below and expressed in terms of percentage to the control group. The activity in the group added with sample was calculated using each control value set on the same plate. % of control=(X−C)/(T−C)×100 wherein • X: cAMP level in the group added with sample • T: mean value of the cAMP levels in 3 wells of the groups without sample addition and with forskolin stimulation […]

[2] = tested on: other receptor expression cells; assay: cAMP production inhibitory activity on other receptor expression cells (specificity check); assay type: cell-based; conditions: receptor-specific
Protocol: The amino acid sequence of GPR34 is known to have low homology to the amino acid sequence of the platelet-activating factor receptor or the uridine diphosphate glycoside. Thus, various compounds including platelet-activating factor and uridine diphosphate glycoside, which are ligands to the receptors showing homology to GPR34, were administered to the GPR34-expressed CHO cells to examine the cAMP production inhibitory activity of these compounds on the GPR34-expressed CHO cells by the method shown in (1-4) described above.
The effect was not noted on the other receptor expression cells but was receptor-specific.

| cAMP production inhibitory activity ([1]; in a higher concentration) | Substance | cAMP production inhibitory effect on other receptor expression cells [2] | cAMP production inhibitory activity ([1]; 37° C. 30 minutes) |
| --- | --- | --- | --- |
| marked activities | phosphatidylserine | not noted |  |
|  | lysophosphatidylserine | not noted | marked activities |
